Laboratory results as given in PubChem BioAssay (NCI).
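96-well plates; 48 h exposure; 5 concentrations. Endpoints by linear interpolation between flanking doses. Not reached: highest tested concentration assigned. Here, GI50 denotes the concentration required for 50% inhibition of growth. TGI: concentration producing complete growth inhibition.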

Experiments:
Assay in all cases: inhibition of tumour cell growth, NCI panel, 48 h
[1] = system: OVCAR-3 ovarian
[2] = system: TK-10 renal
[3] = system: HOP-62 NSCLC
[4] = system: CCRF-CEM leukemia
[5] = system: HS 578T breast
[6] = system: HCT-15 colon
[7] = system: SNB-19 CNS
[8] = system: U251 CNS
[9] = system: NCI/ADR-RES ovarian
[10] = system: M14 melanoma
[11] = system: HCC-2998 colon
[12] = system: SF-268 CNS
[13] = system: A549 NSCLC
[14] = system: IGROV1 ovarian
[15] = system: K-562 leukemia
[16] = system: UO-31 renal
[17] = system: SF-539 CNS
[18] = system: PC-3 prostate
[19] = system: RPMI-8226 leukemia
[20] = system: KM12 colon
[21] = system: SF-295 CNS
[22] = system: NCI-H23 lung
[23] = system: NCI-H460 lung
[24] = system: T-47D breast
[25] = system: SR leukemia
[26] = system: HOP-92 NSCLC
[27] = system: A498 renal
[28] = system: SK-OV-3 ovarian
[29] = system: DU-145 prostate
[30] = system: OVCAR-8 ovarian
[31] = system: NCI-H226 lung
[32] = system: UACC-257 melanoma
[33] = system: SW-620 colon
[34] = system: SK-MEL-28 melanoma
[35] = system: ACHN renal
[36] = system: 786-0 renal
[37] = system: MALME-3M melanoma
[38] = system: HL-60(TB) leukemia
[39] = system: HT29 colon
[40] = system: OVCAR-4 ovarian
[41] = system: MDA-MB-435
[42] = system: EKVX NSCLC
[43] = system: CAKI-1 renal
[44] = system: UACC-62 melanoma
[45] = system: COLO 205 colon
[46] = system: NCI-H522 lung
[47] = system: OVCAR-5 ovarian
[48] = system: SN12C renal
[49] = system: LOX IMVI melanoma
[50] = system: SNB-75 CNS
[51] = system: HCT-116 colon
[52] = system: SK-MEL-5 melanoma
[53] = system: MOLT-4 leukemia
[54] = system: MCF7 breast
[55] = system: MDA-MB-231 breast
[56] = system: RXF 393 renal

c1ccc(CN=C(NCc2ccccc2)NCc2ccccc2)cc1
GI50 [1]: 3.11 µM | TGI [1]: 14.9 µM | GI50 [2]: 10.7 µM | TGI [2]: 27.3 µM | GI50 [3]: 12.7 µM | TGI [3]: 25.9 µM | GI50 [4]: 10.2 µM | TGI [4]: 62.5 µM | GI50 [5]: 10.3 µM | TGI [5]: 27.3 µM | GI50 [6]: 14.3 µM | TGI [6]: > 100 µM | GI50 [7]: 11 µM | TGI [7]: 25 µM | GI50 [8]: 10.2 µM | TGI [8]: 23.5 µM | GI50 [9]: 30.6 µM | TGI [9]: > 100 µM | GI50 [10]: 4.18 µM | TGI [10]: 17.3 µM | GI50 [11]: 3.65 µM | TGI [11]: 12.9 µM | GI50 [12]: 4.32 µM | TGI [12]: 18.5 µM | GI50 [13]: 11.2 µM | TGI [13]: 25.3 µM | GI50 [14]: 1.66 µM | TGI [14]: 9.51 µM | GI50 [15]: 2.6 µM | TGI [15]: 11.9 µM | GI50 [16]: 3.07 µM | TGI [16]: 15.2 µM | GI50 [17]: 11.9 µM | TGI [17]: 27.5 µM | GI50 [18]: 2.76 µM | TGI [18]: 12.9 µM | GI50 [19]: 4.7 µM | TGI [19]: 24.4 µM | GI50 [20]: 3.36 µM | TGI [20]: 13.1 µM | GI50 [21]: 1.21 µM | TGI [21]: 6.49 µM | GI50 [22]: 4.66 µM | TGI [22]: 17.8 µM | GI50 [23]: 5.1 µM | TGI [23]: 19.5 µM | GI50 [24]: 4.7 µM | TGI [24]: 17 µM | GI50 [25]: 6.21 µM | TGI [25]: 29.5 µM | GI50 [26]: 3.18 µM | TGI [26]: 12.7 µM | GI50 [27]: 2.2 µM | TGI [27]: 14.7 µM | GI50 [28]: 10.9 µM | TGI [28]: 23.6 µM | GI50 [29]: 5.38 µM | TGI [29]: 19.4 µM | GI50 [30]: 6.44 µM | TGI [30]: 21.8 µM | GI50 [31]: 6.04 µM | TGI [31]: 21.4 µM | GI50 [32]: 3.23 µM | TGI [32]: 11.1 µM | GI50 [33]: 4.42 µM | TGI [33]: 17.9 µM | GI50 [34]: 14.8 µM | TGI [34]: 29.2 µM | GI50 [35]: 6.03 µM | TGI [35]: 21.1 µM | GI50 [36]: 11.4 µM | TGI [36]: 25.7 µM | GI50 [37]: 3.56 µM | TGI [37]: 17.1 µM | GI50 [38]: 2.69 µM | TGI [38]: 13.2 µM | GI50 [39]: 5.58 µM | TGI [39]: 19.8 µM | GI50 [40]: 6.23 µM | TGI [40]: 36.8 µM | GI50 [41]: 3.21 µM | TGI [41]: 15.1 µM | GI50 [42]: 1.85 µM | TGI [42]: 7.81 µM | GI50 [43]: 11.1 µM | TGI [43]: 26.7 µM | GI50 [44]: 10.1 µM | TGI [44]: 22.6 µM | GI50 [45]: 1.98 µM | TGI [45]: 4.03 µM | GI50 [46]: 8.35 µM | TGI [46]: 21.3 µM | GI50 [47]: 10.1 µM | TGI [47]: 24.5 µM | GI50 [48]: 6.92 µM | TGI [48]: 24.1 µM | GI50 [49]: 5.52 µM | TGI [49]: 19.3 µM | GI50 [50]: 2.37 µM | TGI [50]: 13 µM | GI50 [51]: 3.97 µM | TGI [51]: 17.3 µM | GI50 [52]: 3.95 µM | TGI [52]: 14.6 µM | GI50 [53]: 3.77 µM | TGI [53]: 19.1 µM | GI50 [54]: 6.37 µM | TGI [54]: 19.6 µM | GI50 [55]: 10.6 µM | TGI [55]: 25.4 µM | GI50 [56]: 14.3 µM | TGI [56]: 28.2 µM
